Key:
Type in all cases: functional
[1] = tested on: A498; experiment: Growth inhibition of human A498 cells assessed as cell growth at 100 uM incubated for 48 hrs by sulforhodamine B assay relative to control; details: A498, 48 h, read-out: Activity
[2] = tested on: NCI-H522; experiment: Growth inhibition of human NCI-H522 cells assessed as cell growth at 1 uM incubated for 48 hrs by sulforhodamine B assay relative to control; details: NCI-H522, 48 h, read-out: Activity
[3] = tested on: HCT-15; experiment: Growth inhibition of human HCT15 cells assessed as cell growth at 0.01 uM incubated for 48 hrs by sulforhodamine B assay relative to control; details: HCT-15, 48 h, read-out: Activity
[4] = tested on: OVCAR-4; experiment: Growth inhibition of human OVCAR4 cells assessed as cell growth at 0.01 uM incubated for 48 hrs by sulforhodamine B assay relative to control; details: OVCAR-4, 48 h, read-out: Activity
[5] = tested on: 786-0; experiment: Growth inhibition of human 786-0 cells assessed as cell growth at 0.1 uM incubated for 48 hrs by sulforhodamine B assay relative to control; details: 786-0, 48 h, read-out: Activity
[6] = tested on: SF-539; experiment: Growth inhibition of human SF539 cells assessed as cell growth at 0.1 uM incubated for 48 hrs by sulforhodamine B assay relative to control; details: SF-539, 48 h, read-out: Activity
[7] = tested on: RXF 393; experiment: Growth inhibition of human RXF393 cells assessed as cell growth at 0.01 uM incubated for 48 hrs by sulforhodamine B assay relative to control; details: RXF 393, 48 h, read-out: Activity
[8] = tested on: SR; experiment: Growth inhibition of human SR cells assessed as cell growth at 0.01 uM incubated for 48 hrs by sulforhodamine B assay relative to control; details: read-out: Activity
[9] = tested on: SR; experiment: Growth inhibition of human SR cells incubated for 48 hrs by sulforhodamine B assay
[10] = tested on: CAKI-1; experiment: Growth inhibition of human Caki1 cells incubated for 48 hrs by sulforhodamine B assay; details: CAKI-1, 48 h
[11] = tested on: IGROV-1; experiment: Growth inhibition of human IGROV1 cells incubated for 48 hrs by sulforhodamine B assay; details: IGROV-1, 48 h
[12] = tested on: NCI/ADR-RES; experiment: Growth inhibition of human NCI-ADR-RES cells assessed as cell growth at 1 uM incubated for 48 hrs by sulforhodamine B assay relative to control; details: read-out: Activity
[13] = tested on: UACC-62; experiment: Growth inhibition of human UACC62 cells assessed as cell growth at 0.01 uM incubated for 48 hrs by sulforhodamine B assay relative to control; details: UACC-62, 48 h, read-out: Activity
[14] = tested on: SK-MEL-5; experiment: Growth inhibition of human SK-MEL-5 cells assessed as cell growth at 0.1 uM incubated for 48 hrs by sulforhodamine B assay relative to control; details: SK-MEL-5, 48 h, read-out: Activity
[15] = tested on: T47D; experiment: Growth inhibition of human T47D cells assessed as cell growth at 1 uM incubated for 48 hrs by sulforhodamine B assay relative to control; details: read-out: Activity
[16] = tested on: SW-620; experiment: Growth inhibition of human SW620 cells assessed as cell growth at 0.01 uM incubated for 48 hrs by sulforhodamine B assay relative to control; details: SW-620, 48 h, read-out: Activity
[17] = tested on: HL-60(TB); experiment: Growth inhibition of human HL-60(TB) cells incubated for 48 hrs by sulforhodamine B assay; details: HL-60, 48 h
[18] = tested on: HCT-15; experiment: Growth inhibition of human HCT15 cells incubated for 48 hrs by sulforhodamine B assay; details: HCT-15, 48 h
[19] = tested on: SK-MEL-28; experiment: Growth inhibition of human SK-MEL-28 cells assessed as cell growth at 100 uM incubated for 48 hrs by sulforhodamine B assay relative to control; details: SK-MEL-28, 48 h, read-out: Activity
[20] = tested on: CAKI-1; experiment: Growth inhibition of human Caki1 cells assessed as cell growth at 0.01 uM incubated for 48 hrs by sulforhodamine B assay relative to control; details: CAKI-1, 48 h, read-out: Activity
[21] = tested on: MCF7; experiment: Growth inhibition of human MCF7 cells incubated for 48 hrs by sulforhodamine B assay; details: MCF7, 48 h; for TGI: read-out: pTGI (converted)
[22] = tested on: NCI-H322M; experiment: Growth inhibition of human NCI-H322M cells assessed as cell growth at 0.01 uM incubated for 48 hrs by sulforhodamine B assay relative to control; details: read-out: Activity
[23] = tested on: IGROV-1; experiment: Growth inhibition of human IGROV1 cells assessed as cell growth at 0.1 uM incubated for 48 hrs by sulforhodamine B assay relative to control; details: IGROV-1, 48 h, read-out: Activity
[24] = tested on: A498; experiment: Growth inhibition of human A498 cells incubated for 48 hrs by sulforhodamine B assay; details: A498, 48 h
[25] = tested on: A549; experiment: Growth inhibition of human A549/ATCC cells assessed as cell growth at 1 uM incubated for 48 hrs by sulforhodamine B assay relative to control; details: A549, 48 h, read-out: Activity
[26] = tested on: UACC-257; experiment: Growth inhibition of human UACC257 cells assessed as cell growth at 0.01 uM incubated for 48 hrs by sulforhodamine B assay relative to control; details: UACC-257, 48 h, read-out: Activity
[27] = tested on: K562; experiment: Growth inhibition of human K562 cells assessed as cell growth at 0.01 uM incubated for 48 hrs by sulforhodamine B assay relative to control; details: K562, 48 h, read-out: Activity
[28] = tested on: NCI-H23; experiment: Growth inhibition of human NCI-H23 cells assessed as cell growth at 100 uM incubated for 48 hrs by sulforhodamine B assay relative to control; details: NCI-H23, 48 h, read-out: Activity
[29] = tested on: HT-29; experiment: Growth inhibition of human HT-29 cells assessed as cell growth at 0.1 uM incubated for 48 hrs by sulforhodamine B assay relative to control; details: HT-29, 48 h, read-out: Activity
[30] = read-out: LC50 (the source's name)
[31] = read-out: pLC50 (the source's name) (converted)

c1ccc2c3c([nH]c2c1)C(c1ccc(C2NCCc4c2[nH]c2ccccc42)cc1)NCC3 (racemic)
growth at 100 µM [1]: -85%
growth at 1 µM [2]: 16%
growth at 0.01 µM [3]: 94%
growth at 0.01 µM [4]: 88%
growth at 0.1 µM [5]: 103%
growth at 0.1 µM [6]: 95%
growth at 0.01 µM [7]: 101%
growth at 0.01 µM [8]: 108%
GI50 ([9]; read-out: GI50): 2.47 µM
CC50 [9, 30]: 4.51 µM
TGI ([9]; read-out: TGI): 5.56 µM
GI50 ([9]; read-out: pGI50 (converted)): 0.245 µM
CC50 [9, 31]: 4.47 µM
TGI ([9]; read-out: pTGI (converted)): 0.55 µM
GI50 ([10]; read-out: GI50): 1.66 µM
CC50 [10, 30]: 9.82 µM
TGI ([10]; read-out: TGI): 4.03 µM
GI50 ([10]; read-out: pGI50 (converted)): 1.66 µM
CC50 [10, 31]: 9.77 µM
TGI ([10]; read-out: pTGI (converted)): 4.07 µM
GI50 ([11]; read-out: GI50): 1.34 µM
CC50 [11, 30]: 5.99 µM
TGI ([11]; read-out: TGI): 2.85 µM
GI50 ([11]; read-out: pGI50 (converted)): 1.35 µM
CC50 [11, 31]: 6.03 µM
TGI ([11]; read-out: pTGI (converted)): 2.82 µM
growth at 1 µM [12]: 78%
growth at 0.01 µM [13]: 96%
growth at 0.1 µM [14]: 101%
growth at 1 µM [15]: 66%
growth at 0.01 µM [16]: 101%
GI50 ([17]; read-out: GI50): 1.13 µM
CC50 [17, 30]: 6.99 µM
TGI ([17]; read-out: TGI): 2.81 µM
GI50 ([17]; read-out: pGI50 (converted)): 1.12 µM
CC50 [17, 31]: 6.92 µM
TGI ([17]; read-out: pTGI (converted)): 2.82 µM
GI50 ([18]; read-out: pGI50 (converted)): 0.427 µM
TGI ([18]; read-out: pTGI (converted)): 1.78 µM
growth at 100 µM [19]: 93%
growth at 0.01 µM [20]: 90%
CC50 [21, 30]: 6.1 µM
GI50 ([21]; read-out: pGI50 (converted)): 0.389 µM
CC50 [21, 31]: 6.17 µM
TGI [21]: 1.74 µM
growth at 0.01 µM [22]: 92%
growth at 0.1 µM [23]: 92%
GI50 ([24]; read-out: GI50): 1.64 µM
CC50 [24, 30]: 36.9 µM
TGI ([24]; read-out: TGI): 8.87 µM
GI50 ([24]; read-out: pGI50 (converted)): 1.66 µM
CC50 [24, 31]: 37.2 µM
TGI ([24]; read-out: pTGI (converted)): 8.91 µM
growth at 1 µM [25]: 56%
growth at 0.01 µM [26]: 101%
growth at 0.01 µM [27]: 113%
growth at 100 µM [28]: 86%
growth at 0.1 µM [29]: 103%

c1ccc2[nH]c(-c3ccc(-c4nccc5c4[nH]c4ccccc45)cc3)nc2c1
growth at 100 µM [1]: 85%
growth at 1 µM [2]: 91%
growth at 0.01 µM [3]: 93%
growth at 0.01 µM [4]: 90%
growth at 0.1 µM [5]: 92%
growth at 0.1 µM [6]: 98%
growth at 0.01 µM [7]: 106%
growth at 0.01 µM [8]: 97%
GI50 ([9]; read-out: GI50): 2.21 µM
CC50 [9, 30]: > 1 µM
TGI ([9]; read-out: TGI): 6.36 µM
GI50 ([9]; read-out: pGI50 (converted)): 2.19 µM
CC50 [9, 31]: > 100 µM
TGI ([9]; read-out: pTGI (converted)): 6.31 µM
GI50 ([10]; read-out: GI50): 2.41 µM
CC50 [10, 30]: 3.68 µM
TGI ([10]; read-out: TGI): 7.11 µM
GI50 ([10]; read-out: pGI50 (converted)): 2.4 µM
CC50 [10, 31]: 37.2 µM
TGI ([10]; read-out: pTGI (converted)): 7.08 µM
GI50 ([11]; read-out: GI50): 4.73 µM
CC50 [11, 30]: > 1 µM
GI50 ([11]; read-out: pGI50 (converted)): 4.68 µM
CC50 [11, 31]: > 100 µM
TGI ([11]; read-out: pTGI (converted)): 22.4 µM
growth at 1 µM [12]: 98%
growth at 0.01 µM [13]: 89%
growth at 0.1 µM [14]: 100%
growth at 1 µM [15]: 82%
growth at 0.01 µM [16]: 103%
GI50 ([17]; read-out: GI50): 2.03 µM
CC50 [17, 30]: > 1 µM
TGI ([17]; read-out: TGI): 4.59 µM
GI50 ([17]; read-out: pGI50 (converted)): 2.04 µM
CC50 [17, 31]: > 100 µM
TGI ([17]; read-out: pTGI (converted)): 4.57 µM
GI50 ([18]; read-out: GI50): 2.22 µM
LC50 ([18]; read-out: LC50): 3 µM
TGI ([18]; read-out: TGI): 5.61 µM
GI50 ([18]; read-out: pGI50 (converted)): 2.24 µM
LC50 ([18]; read-out: pLC50 (converted)): 30.2 µM
TGI ([18]; read-out: pTGI (converted)): 5.62 µM
growth at 100 µM [19]: 69%
growth at 0.01 µM [20]: 91%
GI50 ([21]; read-out: GI50): 3.56 µM
CC50 [21, 30]: 8.86 µM
GI50 ([21]; read-out: pGI50 (converted)): 3.55 µM
CC50 [21, 31]: 89.1 µM
TGI [21]: 17.4 µM
growth at 0.01 µM [22]: 92%
growth at 0.1 µM [23]: 99%
GI50 ([24]; read-out: GI50): 1.14 µM
CC50 [24, 30]: 5.68 µM
GI50 ([24]; read-out: pGI50 (converted)): 11.5 µM
CC50 [24, 31]: 56.2 µM
TGI ([24]; read-out: pTGI (converted)): 25.7 µM
growth at 1 µM [25]: 96%
growth at 0.01 µM [26]: 93%
growth at 0.01 µM [27]: 104%
growth at 100 µM [28]: 54%
growth at 0.1 µM [29]: 98%
